Assay results from patent publication US9120812B2, “Pyrimidooxazocine derivatives as mTOR-inhibitors” (SANOFI, priority 2012, dated 2015).

Experiments:
[1] = molecular target: PI3Kα (p110α/p85α) (Homo sapiens (Human), UniProt P42336); assay: PI3Kα enzymatic test by measuring the consumption of ATP; format: biochemical
Protocol: Model 2: PI3Kα Enzymatic Test by Measuring the Consumption of ATP.
The test uses a lucifeurerin/luciferase system to measure the concentration of ATP and its consumption during the enzymatic reaction. The test is performed in 96-well format (Corning/Costar 96 black flat-bottomed half-wells plate, ref. 3694) in a total volume of 30 μl.
To 1 μl of inhibitor in 100% DMSO are added (final concentrations) 50 μM of the substrate PIP2 ((L-α-phosphatidyl-D-myoinositol 4,5-bisphosphate, Echelon 117P-4516-0500), 2 μM of ATP and 1.7 μg/ml of PI3Kα, (p110α/p85α, Invitrogen PV4788) in a buffer of Tris/HCl 50 mM pH 7.5, EGTA 1 mM, MgCl2 10 mM, Chaps 0.03%, 1 mM DTT). After 90 minutes, the reaction is quenched by adding 20 μl/well of KinaseGlo reagent (Promega V6713). After 10 minutes in the dark, the luminescence is read on the PHERAStar microplate reader (reading at 0.8 sec/well).
The IC50 values are determined by the preparation of successive threefold dilutions on at least a scale of 10 000.

[2] = molecular target: mTOR (human recombinant aa mTOR 1360-2549) (Homo sapiens (Human), UniProt P42345); assay: mTOR enzymatic test by TR-FRET (phosphorylation of GFP-4EBP1); format: biochemical
Protocol: Model 1: mTOR Enzymatic Test by TR-FRET (Time-resolved Fluorescence Resonance Energy Transfer).
The test detects the phosphorylation of the substrate GFP-4EBP1 using a terbium-labelled antibody that is specific for the phospho-Thr46 epitope. Binding of the Tb-antibody to the phosphorylated GFP peptide allows the transfer of energy from Tb, excited at 340 nm, to GFP with an increase in the fluorescence emission of the GFP at 520 nm. […] The mixture is incubated for 30 minutes at room temperature. 10 μl of solution are taken up and the reaction is quenched by adding 10 μl of Tb-antibody solution (Invitrogen PV4757)/EDTA (2 nM Tb-Ac and 10 mM EDTA final). After 60 minutes at room temperature, the fluorescence at 490 nm, from the Tb emission, and at 520 nm, from the GFP emission, is measured in a BMG PHERAstar reader equipped with a Lanthascreen™ filter (excitation at 340 nm, emission at 490 and 520 nm). The results are given in the form of the 520/490 ratio.

[3] = tested on: U87MG tumour cells; assay: Test of in vitro proliferation of U87MG tumour cells; format: cell-based; details: Homo sapiens, U-87 MG, 72 h, U87MG cells, 72 hours; read-out: U87 Cell Proliferation IC50
Protocol: Model 4: Test of in vitro Proliferation of U87MG Tumour Cells.
The cell growth is determined with the reagent CellTiter 96 AQueous One Solution Cell Proliferation Assay from Promega (Cat. No. G3581).

PI3Kα (p110α/p85α), sequence (P42336 whole entry): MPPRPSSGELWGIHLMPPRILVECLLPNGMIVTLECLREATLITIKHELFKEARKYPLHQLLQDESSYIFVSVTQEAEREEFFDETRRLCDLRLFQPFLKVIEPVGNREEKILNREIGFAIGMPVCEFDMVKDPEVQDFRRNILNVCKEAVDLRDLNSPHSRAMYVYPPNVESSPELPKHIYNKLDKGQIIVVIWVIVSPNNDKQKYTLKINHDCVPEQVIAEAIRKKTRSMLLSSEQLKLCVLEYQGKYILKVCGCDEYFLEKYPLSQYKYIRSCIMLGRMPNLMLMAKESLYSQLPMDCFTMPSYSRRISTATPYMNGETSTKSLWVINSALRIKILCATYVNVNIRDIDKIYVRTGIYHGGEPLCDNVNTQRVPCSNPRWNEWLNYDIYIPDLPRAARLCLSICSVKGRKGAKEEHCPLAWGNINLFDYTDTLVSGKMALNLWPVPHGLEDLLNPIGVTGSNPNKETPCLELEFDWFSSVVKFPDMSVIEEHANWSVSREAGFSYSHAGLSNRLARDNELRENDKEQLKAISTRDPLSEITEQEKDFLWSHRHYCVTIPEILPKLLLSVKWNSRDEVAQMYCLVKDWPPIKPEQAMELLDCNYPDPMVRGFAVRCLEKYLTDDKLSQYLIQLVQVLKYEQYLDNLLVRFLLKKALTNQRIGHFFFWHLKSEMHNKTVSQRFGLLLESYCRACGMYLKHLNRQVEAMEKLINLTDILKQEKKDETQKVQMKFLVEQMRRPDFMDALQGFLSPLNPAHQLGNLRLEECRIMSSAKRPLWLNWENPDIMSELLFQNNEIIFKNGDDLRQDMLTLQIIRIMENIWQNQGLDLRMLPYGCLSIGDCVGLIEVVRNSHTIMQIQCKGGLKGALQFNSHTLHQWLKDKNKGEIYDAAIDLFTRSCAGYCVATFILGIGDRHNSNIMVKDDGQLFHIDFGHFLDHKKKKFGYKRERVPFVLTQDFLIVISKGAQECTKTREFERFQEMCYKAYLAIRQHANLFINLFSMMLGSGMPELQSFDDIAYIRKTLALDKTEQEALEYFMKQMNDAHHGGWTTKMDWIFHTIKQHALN
PI3Kα (p110α/p85α), sequence (P27986 whole entry partner): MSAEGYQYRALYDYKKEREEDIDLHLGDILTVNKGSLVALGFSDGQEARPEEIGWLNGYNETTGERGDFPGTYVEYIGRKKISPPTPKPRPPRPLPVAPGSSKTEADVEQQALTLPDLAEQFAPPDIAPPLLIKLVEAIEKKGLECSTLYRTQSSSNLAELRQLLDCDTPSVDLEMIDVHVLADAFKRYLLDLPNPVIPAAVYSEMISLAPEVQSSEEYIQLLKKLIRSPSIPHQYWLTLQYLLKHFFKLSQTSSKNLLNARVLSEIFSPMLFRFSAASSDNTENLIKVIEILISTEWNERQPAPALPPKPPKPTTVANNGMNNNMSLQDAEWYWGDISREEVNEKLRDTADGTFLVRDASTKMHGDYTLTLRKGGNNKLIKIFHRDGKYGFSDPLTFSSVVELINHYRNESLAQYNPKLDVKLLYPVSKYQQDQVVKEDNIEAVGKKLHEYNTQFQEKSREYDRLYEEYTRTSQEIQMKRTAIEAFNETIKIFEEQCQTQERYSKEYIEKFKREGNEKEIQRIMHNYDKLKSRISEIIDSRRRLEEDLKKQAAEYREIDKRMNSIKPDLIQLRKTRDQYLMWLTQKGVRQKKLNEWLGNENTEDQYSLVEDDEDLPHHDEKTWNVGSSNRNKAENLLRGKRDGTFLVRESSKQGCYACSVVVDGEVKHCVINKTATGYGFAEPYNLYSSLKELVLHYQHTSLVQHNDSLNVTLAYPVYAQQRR
mTOR (human recombinant aa mTOR 1360-2549), sequence (P42345 1360-2549): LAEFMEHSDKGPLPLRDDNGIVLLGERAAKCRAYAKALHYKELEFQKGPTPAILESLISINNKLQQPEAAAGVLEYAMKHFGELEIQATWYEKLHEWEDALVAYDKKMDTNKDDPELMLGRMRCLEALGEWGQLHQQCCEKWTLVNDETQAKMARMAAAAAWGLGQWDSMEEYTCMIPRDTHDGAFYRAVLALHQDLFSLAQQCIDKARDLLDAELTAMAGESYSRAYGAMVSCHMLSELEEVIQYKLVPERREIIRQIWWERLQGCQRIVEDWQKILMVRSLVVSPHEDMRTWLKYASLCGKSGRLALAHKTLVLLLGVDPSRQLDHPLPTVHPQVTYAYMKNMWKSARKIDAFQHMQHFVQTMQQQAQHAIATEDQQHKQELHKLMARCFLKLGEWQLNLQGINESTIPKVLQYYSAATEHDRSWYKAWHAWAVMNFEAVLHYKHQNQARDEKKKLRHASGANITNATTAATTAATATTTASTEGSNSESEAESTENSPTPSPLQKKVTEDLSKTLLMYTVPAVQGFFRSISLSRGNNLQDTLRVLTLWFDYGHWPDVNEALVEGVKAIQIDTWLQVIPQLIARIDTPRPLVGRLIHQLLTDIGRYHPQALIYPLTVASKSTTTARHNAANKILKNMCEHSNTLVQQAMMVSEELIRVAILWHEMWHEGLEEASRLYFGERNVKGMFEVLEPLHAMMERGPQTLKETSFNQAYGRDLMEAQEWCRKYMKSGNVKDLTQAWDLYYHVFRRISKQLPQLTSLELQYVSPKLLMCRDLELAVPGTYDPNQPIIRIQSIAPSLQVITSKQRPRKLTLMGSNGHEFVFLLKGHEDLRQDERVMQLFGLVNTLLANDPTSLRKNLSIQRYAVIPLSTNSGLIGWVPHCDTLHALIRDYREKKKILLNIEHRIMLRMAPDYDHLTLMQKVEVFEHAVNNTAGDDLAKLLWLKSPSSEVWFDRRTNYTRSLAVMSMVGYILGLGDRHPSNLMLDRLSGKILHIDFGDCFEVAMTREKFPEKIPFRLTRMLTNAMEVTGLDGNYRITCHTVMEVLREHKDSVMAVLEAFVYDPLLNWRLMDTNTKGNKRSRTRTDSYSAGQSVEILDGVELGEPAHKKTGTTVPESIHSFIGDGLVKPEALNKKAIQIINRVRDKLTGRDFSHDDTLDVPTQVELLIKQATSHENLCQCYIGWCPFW

Structure (SMILES): CCN1CC(C)(C)Oc2nc(N3CC4CCC(C3)O4)nc(-c3ccc(NC(=O)NC(C)(C)CO)c(F)c3)c2C1=O [Example 224, 1-{4-[6-Ethyl-8,8-dimethyl-2-(8-oxa-3-azabicyclo[3.2.1]oct-3-yl)-5-oxo-5,6,7,8-tetrahydro-9-oxa-1,3,6-triazabenzocyclohepten-4-yl]-2-fluorophenyl}-3-(2-hydroxy-1,1-dimethylethyl)urea]
- PI3Ka IC50 [1]: >10 µM
- IC50 [2]: 1.12 µM

Structure (SMILES): CCNC(=O)Nc1ccc(-c2nc(N3C[C@@H](C)O[C@@H](C)C3)nc3c2C(=O)N(CC)CC(C)(C)O3)cc1 [Example 114, 1-{4-[2-((2S,6R)-2,6-Dimethylmorpholin-4-yl)-6-ethyl-8,8-dimethyl-5-oxo-5,6,7,8-tetrahydro-9-oxa-1,3,6-triazabenzocyclohepten-4-yl]phenyl}-3-ethylurea]
- PI3Ka IC50 [1]: >10 µM
- IC50 [2]: 1.22 µM
- IC50 [3]: > 10 µM

Structure (SMILES): CC1(C)CNC(=O)c2c(nc(N3CCOCC3)nc2-c2ccc(N)nc2)O1 [Example 95, 4-(6-Aminopyridin-3-yl)-8,8-dimethyl-2-morpholin-4-yl-7,8-dihydro-6H-9-oxa-1,3,6-triazabenzocyclohepten-5-one]
- PI3Ka IC50 [1]: >10 µM
- IC50 [2]: 0.624 µM

Structure (SMILES): CCN1CC(C)(C)Oc2nc(N3CCOCC3)nc(-c3ccc(OC)c(CO)c3)c2C1=O [Example 100, 6-Ethyl-4-(3-hydroxymethyl-4-methoxyphenyl)-8,8-dimethyl-2-morpholin-4-yl-7,8-dihydro-6H-9-oxa-1,3,6-triazabenzocyclohepten-5-one]
- PI3Ka IC50 [1]: 7.44 µM
- IC50 [2]: 7.29 µM
- IC50 [3]: > 10 µM

Structure (SMILES): CCN1CC(C)(C)Oc2nc(N3CC4CCC(C3)O4)nc(-c3ccc(NC(=O)Nc4ccc(OC)nc4)c(C)c3)c2C1=O [Example 175, 1-{4-[6-Ethyl-8,8-dimethyl-2-(8-oxa-3-azabicyclo[3.2.1]oct-3-yl)-5-oxo-5,6,7,8-tetrahydro-9-oxa-1,3,6-triazabenzocyclohepten-4-yl]-2-methylphenyl}-3-(6-methoxypyridin-3-yl)urea]
- PI3Ka IC50 [1]: >10 µM
- IC50 [2]: 0.585 µM
- IC50 [3]: 3.05 µM

Structure (SMILES): CCN1CC(C)(C)Oc2nc(N3CCOCC3)nc(-c3ccc(N)cc3)c2C1=O [Example 102, 4-(4-Aminophenyl)-6-ethyl-8,8-dimethyl-2-morpholin-4-yl-7,8-dihydro-6H-9-oxa-1,3,6-triazabenzocyclohepten-5-one]
- PI3Ka IC50 [1]: 3.61 µM
- IC50 [2]: 0.927 µM
- IC50 [3]: 9.83 µM

Structure (SMILES): CCC(=O)Nc1ccc(-c2nc(N3CC4CCC(C3)O4)nc3c2C(=O)N(CC)CC(C)(C)O3)cc1 [Example 108, N-{4-[6-Ethyl-8,8-dimethyl-2-(8-oxa-3-azabicyclo[3.2.1]oct-3-yl)-5-oxo-5,6,7,8-tetrahydro-9-oxa-1,3,6-triazabenzocyclohepten-4-yl]phenyl}propionamide]
- PI3Ka IC50 [1]: >10 µM
- IC50 [2]: 0.472 µM
- IC50 [3]: 4.45 µM

Structure (SMILES): CCN1CC(C)(C)Oc2nc(N3CC4CCC(C3)O4)nc(-c3ccc(NC(=O)Nc4ccnn4C)cc3)c2C1=O [Example 115, 1-{4-[6-Ethyl-8,8-dimethyl-2-(8-oxa-3-azabicyclo[3.2.1]oct-3-yl)-5-oxo-5,6,7,8-tetrahydro-9-oxa-1,3,6-triazabenzocyclohepten-4-yl]phenyl}-3-(2-methyl-2H-pyrazol-3-yl)urea]
- PI3Ka IC50 [1]: >10 µM
- IC50 [2]: 0.147 µM
- IC50 [3]: 5 µM

Structure (SMILES): CCNC(=O)Nc1ccc(-c2nc(N3CCOCC3)nc3c2C(=O)N(CC)CCO3)cc1 [Example 97, 1-Ethyl-3-[4-(6-ethyl-2-morpholin-4-yl-5-oxo-5,6,7,8-tetrahydro-9-oxa-1,3,6-triazabenzocyclohepten-4-yl)phenyl]urea]
- PI3Ka IC50 [1]: 2.159 µM
- IC50 [2]: 0.8 µM
- IC50 [3]: > 10 µM

Structure (SMILES): CCN1CC(C)(C)Oc2nc(N3CC4CCC(C3)O4)nc(-c3ccc(N)nc3)c2C1=O [Example 107, 4-(6-Aminopyridin-3-yl)-6-ethyl-8,8-dimethyl-2-(8-oxa-3-azabicyclo[3.2.1]oct-3-yl)-7,8-dihydro-6H-9-oxa-1,3,6-triazabenzocyclohepten-5-one]
- PI3Ka IC50 [1]: 9.38 µM
- IC50 [2]: 2.65 µM
- IC50 [3]: > 10 µM

Structure (SMILES): CCNC(=O)Nc1ccc(-c2nc(N3CC4CCC(C3)O4)nc3c2CN(CC)CC(C)(C)O3)cc1 [Example 113, 1-Ethyl-3-{4-[6-ethyl-8,8-dimethyl-2-(8-oxa-3-azabicyclo[3.2.1]oct-3-yl)-5,6,7,8-tetrahydro-9-oxa-1,3,6-triazabenzocyclohepten-4-yl]phenyl}urea]
- PI3Ka IC50 [1]: >10 µM
- IC50 [2]: 3.96 µM
- IC50 [3]: > 10 µM

Structure (SMILES): CCN1CC(C)(C)Oc2nc(N3CC4CCC(C3)O4)nc(-c3ccc(NC(=O)NCC4CCCO4)c(F)c3)c2C1=O (stereo not drawn) [Example 128, 1-{4-[6-Ethyl-8,8-dimethyl-2-(8-oxa-3-azabicyclo[3.2.1]oct-3-yl)-5-oxo-5,6,7,8-tetrahydro-9-oxa-1,3,6-triazabenzocyclohepten-4-yl]-2-fluorophenyl}-3-(tetrahydrofuran-2-ylmethyl)urea]
- PI3Ka IC50 [1]: >10 µM
- IC50 [2]: 3.48 µM
- IC50 [3]: > 10 µM

Structure (SMILES): CCN1CC(C)(C)Oc2nc(N3CC4CCC(C3)O4)nc(-c3ccc(NS(=O)(=O)CC)cc3)c2C1=O [Example 111, Ethanesulfonic acid {4-[6-ethyl-8,8-dimethyl-2-(8-oxa-3-azabicyclo[3.2.1]oct-3-yl)-5-oxo-5,6,7,8-tetrahydro-9-oxa-1,3,6-triazabenzocyclohepten-4-yl]phenyl}amide]
- PI3Ka IC50 [1]: >10 µM
- IC50 [2]: 6.35 µM

Structure (SMILES): COCCN1CC(C)(C)Oc2nc(N3CCOC[C@@H]3C)nc(-c3ccc(NC(=O)Nc4cccc(OC(F)F)c4)cc3)c2C1=O [Example 216, 1-(3-Difluoromethoxyphenyl)-3-{4-[6-(2-methoxyethyl)-8,8-dimethyl-2-((S)-3-methylmorpholin-4-yl)-5-oxo-5,6,7,8-tetrahydro-9-oxa-1,3,6-triazabenzocyclohepten-4-yl]phenyl}urea]
- PI3Ka IC50 [1]: 1.83 µM
- IC50 [2]: 0.125 µM
- IC50 [3]: 0.514 µM

Structure (SMILES): CCN1CC(C)(C)Oc2nc(N3CC4CCC(C3)O4)nc(-c3ccc(OC)c(CO)c3)c2C1=O [Example 101, 6-Ethyl-4-(3-hydroxymethyl-4-methoxyphenyl)-8,8-dimethyl-2-(8-oxa-3-azabicyclo[3.2.1]oct-3-yl)-7,8-dihydro-6H-9-oxa-1,3,6-triazabenzocyclohepten-5-one]
- IC50 [2]: 4.04 µM
- IC50 [3]: > 10 µM

Structure (SMILES): CCN1CC(C)(C)Oc2nc(N3CC4CCC(C3)O4)nc(-c3ccc(NC(=O)Nc4cccc(OC)n4)c(F)c3)c2C1=O [Example 142, 1-{4-[6-Ethyl-8,8-dimethyl-2-(8-oxa-3-azabicyclo[3.2.1]oct-3-yl)-5-oxo-5,6,7,8-tetrahydro-9-oxa-1,3,6-triazabenzocyclohepten-4-yl]-2-fluorophenyl}-3-(6-methoxypyridin-2-yl)urea]
- PI3Ka IC50 [1]: >10 µM
- IC50 [2]: 0.495 µM
- IC50 [3]: 3.1 µM

Structure (SMILES): CCN1CC(C)(C)Oc2nc(N3CC4CCC(C3)O4)nc(-c3ccc(NC(=O)NCc4ccc(OC)nc4)c(F)c3)c2C1=O [Example 145, 1-{4-[6-Ethyl-8,8-dimethyl-2-(8-oxa-3-azabicyclo[3.2.1]oct-3-yl)-5-oxo-5,6,7,8-tetrahydro-9-oxa-1,3,6-triazabenzocyclohepten-4-yl]-2-fluorophenyl}-3-(6-methoxypyridin-3-ylmethyl)urea]
- PI3Ka IC50 [1]: >10 µM
- IC50 [2]: 2.98 µM
- IC50 [3]: > 10 µM

Structure (SMILES): CCNC(=O)Nc1ccc(-c2nc(N3C[C@@H](C)O[C@@H](C)C3)nc3c2C(=O)N(CC)CC(C)(C)CO3)cc1 [Example 109, 1-{4-[2-((2S,6R)-2,6-Dimethylmorpholin-4-yl)-6-ethyl-8,8-dimethyl-5-oxo-6,7,8,9-tetrahydro-5H-10-oxa-1,3,6-triazabenzocycloocten-4-yl]phenyl}-3-ethylurea]
- PI3Ka IC50 [1]: 2.046 µM
- IC50 [2]: 7.77 µM

Structure (SMILES): COCCN1CC(C)(C)Oc2nc(N3CCOC[C@@H]3C)nc(-c3ccc(NC(=O)NCC(C)(C)O)c(F)c3)c2C1=O [Example 226, 1-{2-Fluoro-4-[6-(2-methoxyethyl)-8,8-dimethyl-2-((S)-3-methylmorpholin-4-yl)-5-oxo-5,6,7,8-tetrahydro-9-oxa-1,3,6-triazabenzocyclohepten-4-yl]phenyl}-3-(2-hydroxy-2-methylpropyl)urea]
- PI3Ka IC50 [1]: >10 µM
- IC50 [2]: 1.28 µM
